According to patent EP0387762A2, “Medicament with positive inotropic activity, containing a synergistically active mixture consisting of a benzimidazole and a beta-blocker, its preparation and use” (Dr. Karl Thomae GmbH, priority 1989, dated 1990):

Legend:
[1] = Acute toxicity, i.v., rat; conditions: in vivo, iv, Ratte, read-out: LD₅₀ i.v.
Source text: (§1) Die erfindungsgemäß einsetzten Verbindungen sind gut verträglich. So weist beispielsweise die Verbindung A folgende akute Toxizitäten auf: […]

[2] = Acute toxicity, p.o., mouse; conditions: in vivo, po, Maus, read-out: LD₅₀ p.o.
Source text: as §1

Structure (SMILES) | LD50 [1] | LD50 [2]
COc1ccc(-c2nc3ccc(C4=NNC(=O)CC4C)cc3[nH]2)cc1 (stereo not drawn) [Verbindung A, 2-(4-Methoxyphenyl)-5-(5-methyl-3-oxo-4,5-dihydro-2H-6-pyridazinyl)-benzimidazol] | 72 mg/kg | 600 mg/kg
CC1CC(=O)NN=C1c1ccc2nc(-c3ccc(O)cc3)[nH]c2c1 (stereo not drawn) [Verbindung B, 2-(4-Hydroxyphenyl)-5-(5-methyl-3-oxo-4,5-dihydro-2H-6-pyridazinyl)-benzimidazol] | > 100 mg/kg | 
